These are literature values, as cited in US7816544B2, “Synthesis of rocaglamide natural products via photochemical generation of oxidopyrylium species” (Trustees of Boston University, priority 2004, dated 2010).

One data set has as its system NF-κB. Particulars: different mouse and human T cell lines; B. Baumann et al., J. Biol. Chem., 2002.
A further data set deals with human cancer cells. The settings on record: compared with Taxol; B. Y. Hwang et al., J. Org. Chem., 2004.

As to `COc1ccc([C@@]23Oc4cc(OC)cc(OC)c4[C@]2(O)[C@H](O)[C@H](C(=O)N(C)C)[C@H]3c2ccccc2)cc1` [Rocaglamide], in the data set on NF-κB, the “inhibition of NF-κB activity / NF-κB-induced gene activation” value is listed as “among the strongest inhibitors of NF-κB-induced gene activation known so far”.

In the case of `COC(=O)[C@H]1[C@@H](O)[C@@]2(O)c3c(OC)cc(O[C@@H]4O[C@@H]([C@H](O)CO)CO[C@H]4OC)cc3O[C@@]2(c2ccc(OC)cc2)[C@@H]1c1ccccc1` [silvestrol 2, silvestrol], the “cytotoxic activity against human cancer cells” value with human cancer cells is on record as “comparable to the anticancer drug Taxol”.
